Results from US20110082166A1, “NOVEL 4-BENZHYDRYL-TETRAHYDRO-PYRIDINE DERIVATIVES AND THEIR USE AS MONOAMINE NEUROTRANSMITTER RE-UPTAKE INHIBITORS” (NEUROSEARCH A/S, priority 2008, published 2011).
Where a name gives a salt, the structure may show the parent alone. Read-outs that look alike come from different tables or passages of the source.

Columns and labels:
[1] = target: T1, reuptake of noradrenaline (NA) in synaptosomes (Rattus norvegicus, UniProt Q63380); assay: In vitro inhibition of NA reuptake in synaptosomes; type: biochemical
T1 construct: in synaptosomes as described in WO 97/16451 (NeuroSearch A/S); from tissue

[2] = target: T2, reuptake of dopamine (DA) in synaptosomes (Rattus norvegicus, UniProt P23977); assay: In vitro inhibition of DA reuptake in synaptosomes; type: biochemical
T2 construct: in synaptosomes as described in WO 97/16451 (NeuroSearch A/S); from tissue

[3] = target: T3, reuptake of serotonine (5-HT) in synaptosomes (Rattus norvegicus, UniProt P31652); assay: In vitro inhibition of 5-HT reuptake in synaptosomes; type: biochemical
T3 construct: in synaptosomes as described in WO 97/16451 (NeuroSearch A/S); from tissue
Experimental: Compounds were tested for their ability to inhibit the reuptake of the monoamine neurotransmitters dopamine (DA) noradrenaline (NA) and serotonine (5-HT) in synaptosomes as described in WO 97/16451 (NeuroSearch A/S).
The test values are given as IC50 (the concentration (μM) of the test substance which inhibits the specific binding of ^3H-DA, ^3H-NA, or ^3H-5-HT by 50%).

T3 sequence (P31652 whole entry): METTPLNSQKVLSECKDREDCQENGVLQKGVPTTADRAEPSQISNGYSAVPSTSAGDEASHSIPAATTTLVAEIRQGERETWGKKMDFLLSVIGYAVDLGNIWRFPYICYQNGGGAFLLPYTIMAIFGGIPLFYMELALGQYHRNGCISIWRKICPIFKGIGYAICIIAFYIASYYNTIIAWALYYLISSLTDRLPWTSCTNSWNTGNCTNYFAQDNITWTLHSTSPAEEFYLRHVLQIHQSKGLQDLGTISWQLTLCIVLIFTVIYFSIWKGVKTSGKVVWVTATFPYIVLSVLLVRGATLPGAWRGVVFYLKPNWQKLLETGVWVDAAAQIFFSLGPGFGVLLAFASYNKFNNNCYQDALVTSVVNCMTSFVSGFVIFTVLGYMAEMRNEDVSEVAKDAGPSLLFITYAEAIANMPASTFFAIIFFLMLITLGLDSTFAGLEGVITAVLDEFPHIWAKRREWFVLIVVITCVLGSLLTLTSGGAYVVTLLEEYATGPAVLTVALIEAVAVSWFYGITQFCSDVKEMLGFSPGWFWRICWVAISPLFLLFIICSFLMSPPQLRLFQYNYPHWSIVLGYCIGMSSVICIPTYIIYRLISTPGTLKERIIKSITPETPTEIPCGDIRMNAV
T2 sequence (P23977 whole entry): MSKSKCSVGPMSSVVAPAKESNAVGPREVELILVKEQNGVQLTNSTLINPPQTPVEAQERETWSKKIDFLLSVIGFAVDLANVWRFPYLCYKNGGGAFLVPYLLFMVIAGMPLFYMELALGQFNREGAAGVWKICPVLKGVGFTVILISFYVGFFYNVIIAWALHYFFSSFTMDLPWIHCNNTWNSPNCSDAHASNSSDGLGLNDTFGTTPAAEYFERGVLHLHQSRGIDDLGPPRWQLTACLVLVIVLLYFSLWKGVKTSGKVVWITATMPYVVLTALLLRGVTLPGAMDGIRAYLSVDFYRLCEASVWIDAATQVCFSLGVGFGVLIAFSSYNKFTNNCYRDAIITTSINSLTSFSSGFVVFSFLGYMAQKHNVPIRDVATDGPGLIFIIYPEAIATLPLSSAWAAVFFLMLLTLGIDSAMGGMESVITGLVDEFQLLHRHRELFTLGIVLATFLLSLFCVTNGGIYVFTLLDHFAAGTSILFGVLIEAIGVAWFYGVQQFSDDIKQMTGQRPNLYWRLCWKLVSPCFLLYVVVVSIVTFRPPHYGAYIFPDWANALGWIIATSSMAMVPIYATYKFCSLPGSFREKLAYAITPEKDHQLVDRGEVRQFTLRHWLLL
T1 sequence (Q63380 1-617): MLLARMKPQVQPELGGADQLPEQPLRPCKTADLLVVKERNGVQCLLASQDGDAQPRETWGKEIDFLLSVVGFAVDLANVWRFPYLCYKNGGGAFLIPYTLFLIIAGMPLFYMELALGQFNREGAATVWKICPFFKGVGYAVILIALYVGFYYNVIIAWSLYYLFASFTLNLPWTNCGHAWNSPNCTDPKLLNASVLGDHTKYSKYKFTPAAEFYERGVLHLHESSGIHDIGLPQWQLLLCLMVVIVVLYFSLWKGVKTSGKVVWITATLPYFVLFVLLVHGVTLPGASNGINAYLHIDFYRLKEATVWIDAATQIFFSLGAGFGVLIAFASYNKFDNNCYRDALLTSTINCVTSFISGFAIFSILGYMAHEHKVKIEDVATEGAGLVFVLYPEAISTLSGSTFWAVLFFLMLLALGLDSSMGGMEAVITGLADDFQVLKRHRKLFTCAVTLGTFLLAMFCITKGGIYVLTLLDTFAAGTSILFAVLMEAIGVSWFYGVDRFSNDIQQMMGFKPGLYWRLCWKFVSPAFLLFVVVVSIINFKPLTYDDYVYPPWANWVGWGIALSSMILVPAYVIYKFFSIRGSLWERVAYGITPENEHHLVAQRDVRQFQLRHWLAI

Work on `CN1CC=C(C(c2ccccc2)c2ccccc2)CC1` (as salt: fumaric acid salt) [4-Benzhydryl-1-methyl-1,2,3,6-tetrahydro-pyridine] yielded a melting point of 177.6 to 179.2 °C.

Work on `C1=C(C(c2ccccc2)c2ccccc2)CCNC1` [4-Benzhydryl-1,2,3,6-tetrahydro-pyridine] yielded an IC50 [1] of 45 nM, an IC50 [2] of 63 nM and an IC50 [3] of 3.5 nM.

Work on `CN1CC=C(C(c2ccccc2)c2ccccc2)CC1` [4-Benzhydryl-1-methyl-1,2,3,6-tetrahydro-pyridine] yielded an IC50 ([1]; synaptosomes, 3H-NA, read-out: NA-uptake IC50) of 600 nM, an IC50 ([2]; synaptosomes, 3H-DA, read-out: DA-uptake IC50) of 580 nM and an IC50 ([3]; synaptosomes, 3H-5-HT, read-out: 5-HT-uptake IC50) of over 1000 nM.
